Measured values from article PMC3725310 (Nature, 2013).

Target: p7(5a) (Hepatitis C virus (isolate EUH1480), UniProt O39928, A759S/C749A/C774T/C791S/T748G)
Experiment: biochemical
Format: binding

CC(N)C12CC3CC(CC(C3)C1)C2 (stereo not shown) [rimantadine]
Kd: 50 to 100 µM
